Entries after “also recorded” stand apart in the source; their conditions may differ.
Tested on: 3T3-L1 preadipocytes
Assay: Adipocyte differentiation / adipogenesis (Oil red-O staining, leptin and resistin ELISA)
Format: cell-based, murine
Description: 3T3-L1 preadipocytes are stimulated to differentiate to a rounded phenotype and accumulate lipids in the form of lipid droplets when treated with dexamethasone, isobutylmethylxanthine (IBMX), and insulin [54]. The 3T3-L1 cells are primed for differentiation by the incubation with IBMX and dexamethasone, and in some cells insulin, for 24 hrs, then, insulin is withdrawn and replaced with various concentrations of NPY (FIG. 5).
ELISA: NPY ELISA system are purchased from Penninsula Laboratories, bFGF, VEGF and mouse leptin ELISA kits from R&D systems, mouse adiponectin ELISA kit from Linco Research and catecholamine detection system—3CAT EIA from Diagnostic Systems Laboratories. The assays are performed according to the manufacturers' procedures.
Oil Red O staining: Oil Red O solution (0.36% Oil Red O solution in 60% isopropanol) is used to stain lipid droplets in mature adipocytes and paraffin embedded tissues (Chemicon Adipogenesis Assay kit).
1. Cell culture: 3T3-L1 preadipocyte cells, (gift from Dr. Lane,^34) were cultured in DMEM high glucose media with glutamine, 10% calf sera (Gemini Bioproducts), d-Biotin (8 μg/ml) and Pantothenate (8 μg/ml) (Sigma). SK-N-BE(2) neuroblastoma cells (ATCC) were cultured in EMEM/F12K with 10% fetal bovine sera (FBS). HMVEC endothelial cells (Cambrex) were cultured in endothelial cell growth media (Cambrex). All media was supplemented with 100 units/ml penicillin, 100 μg/ml streptomycin and […] amphotericin. 2. Proliferation assay: Cells were plated onto 96-well dishes, growth-arrested in serum-free media for 24 h, and then were treated with the desired factors for 24 h in the culture media supplemented with 0.25% FBS; 4 hr after treatment 0.5 μCi [^3H] thymidine was added to each well. After 24 h, cells were harvested in a 96-well harvester (Tomtec) and counted in a Betaplate Liquid Scintillation Counter (Wallac). 3. Co-culture: For mitogenic assay and expression studies, co-culture was performed in a Costar Transwell system. Cells were plated on 6-well plates or inserts with 0.4 μm Polyester membranes. At 30% confluence, the inserts were combined with wells containing other cells. Co-culture of neuroblastomas with endothelial cells (EC) were carried out in EC media and preadipocytes in preadipocyte growth media. After the respective treatment, the cells growing on the plates were harvested for RNA isolation. For the mitogenic assay, cells were first growth-arrested in serum-free media for 24 hr, then the inserts placed into the plates and cells treated with desired factors in 0.25% FBS. After 48 hr, the cells were counted with a Beckman Coulter Counter. In both co-culture models, media was collected for Leptin (R&D Systems), Resistin (R&D Systems), and NPY (Bachem) ELISA. 4. Real-time RT-PCR: RNA was isolated using Tri Reagent (Sigma) and cDNA synthesized by iScript cDNA synthesis kit (BioRad). ICycler iQ Detection System (BioRad) was used to perform Real Time PCR. cDNA was amplified for 40 cycles using TaqMan PCR Reagent Kit and pre-designed primers and fluorescein-labeled probes from Applied Biosystems, as previously described^16, according to the manufacturer's procedure. The results were analyzed using software provided by BioRad and expression levels calculated by the comparative CT method using β-actin as an endogenous reference gene, according to the Applied Biosystems' ABI PRISM 7700 User Bulletin #2. 5. TUNEL: TUNEL reaction was performed using In Situ Cell Detection Kit (Roche Diagnostic) and signal converted to visible light using AP-converter. The density of TUNEL positive cells will be measured using NIH ImageJ software (using a plugin written by Wayne Rasband). 6. ELISA: ELISA kits for: NPY (Bachem Laboratories), mouse Leptin, Corticosterone, and Resistin (R&D systems), rat/mouse Insulin and mouse Adiponectin (Linco Research), and mouse Osteocalcin (Biomedical Technologies, Inc.) were used. The assays were performed according to the manufacturers' procedures. 7. […]

Molecule	block of NPY-induced leptin and resistin secretion and lipid filling (Y2R antagonist)	adipogenesis in cells not originally primed by insulin (NPY by itself)	leptin secretion (differentiated 3T3-L1 adipocytes)	differentiation into adipocytes (adipogenesis) (insulin preconditioned / primed 3T3-L1 cells, NPY 1×10-14 to 1×10^-8 M)	resistin secretion (preadipocytes primed for differentiation)	lipid deposition / lipid filling (Oil red-O staining) (primed 3T3-L1 cells, insulin replaced with NPY)
N=C(N)NCCC[C@H](NC(=O)CC1(CC(=O)N2CCN(C3c4ccccc4NC(=O)c4ccccc43)CC2)CCCC1)C(=O)NCCn1c(=O)n(-c2ccccc2)n(-c2ccccc2)c1=O (stereo partly drawn) [BIIE0246]	blocked					
neuropeptide Y [NPY]		unable to stimulate adipogenesis	increases leptin secretion; also recorded: increased	stimulated differentiation into adipocytes; also recorded: stimulating adipogenesis	increased	markedly increased

— patent publication US20090317376A1, “Compositions And Methods For Lipo Modeling” (Georgetown University MEDICAL SCHOOL, priority 2005, published 2009)
